Source: ChEMBL document CHEMBL1201862, “PubChem BioAssay data set” (2004)
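1) Cells in 96-well plates. 2) Compound, 48 h, 5 concentrations. 3) Linear interpolation between surrounding doses. 4) Unreached endpoint = highest concentration. The concentration for 50% growth inhibition is given as GI50.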 Activity calls are given as the source filed them. Rule as the data show it: active = GI50 up to about 1.1 µM and inactive = higher.

Key:
Assay in all cases: NCI anticancer screen, dose series, 48 h
786-0 = system: 786-0
A498 = system: A498
A549 = system: A549
ACHN = system: ACHN
BT-549 = system: BT-549
CAKI-1 = system: CAKI-1
CCRF-CEM = system: CCRF-CEM
COLO 205 = system: COLO 205
DLD-1 = system: DLD-1
DMS-114 = system: DMS-114
DMS-273 = system: DMS-273
DU-145 = system: DU-145
EKVX = system: EKVX
HCC 2998 = system: HCC 2998
HCT-116 = system: HCT-116
HCT-15 = system: HCT-15
HL-60 = system: HL-60
HOP-62 = system: HOP-62
HOP-92 = system: HOP-92
HT-29 = system: HT-29
Hs-578T = system: Hs-578T
IGROV-1 = system: IGROV-1
K562 = system: K562
KM-20L2 = system: KM-20L2
KM12 = system: KM12
LOX IMVI = system: LOX IMVI
LXFL 529 = system: LXFL 529
M14 = system: M14
M19-MEL = system: M19-MEL
MDA-MB-231 = system: MDA-MB-231
MDA-MB-435 = system: MDA-MB-435
MDA-N = system: MDA-N
MOLT-4 = system: MOLT-4
Malme-3M = system: Malme-3M
NCI-H226 = system: NCI-H226
NCI-H23 = system: NCI-H23
NCI-H460 = system: NCI-H460
NCI-H522 = system: NCI-H522
OVCAR-3 = system: OVCAR-3
OVCAR-4 = system: OVCAR-4
OVCAR-5 = system: OVCAR-5
OVCAR-8 = system: OVCAR-8
PC-3 = system: PC-3
RPMI-8226 = system: RPMI-8226
RXF 393 = system: RXF 393
SF-268 = system: SF-268
SF-295 = system: SF-295
SF-539 = system: SF-539
SK-MEL-28 = system: SK-MEL-28
SK-MEL-2 = system: SK-MEL-2
SK-MEL-5 = system: SK-MEL-5
SK-OV-3 = system: SK-OV-3
SN12C = system: SN12C
SNB-19 = system: SNB-19
SNB-75 = system: SNB-75
SNB-78 = system: SNB-78
SR = system: SR
SW-620 = system: SW-620
T47D = system: T47D
TK-10 = system: TK-10
U-251 = system: U-251
UACC-257 = system: UACC-257
UACC-62 = system: UACC-62
UO-31 = system: UO-31
XF498 = system: XF498

## COCC(=O)[C@]1(O)Cc2c(O)c3c(c(O)c2[C@@H](OC2CC(N)C(O)C(C)O2)C1)C(=O)c1c(OC)cccc1C3=O (stereo not given in full)
786-0
  GI50: 37.3 nM (active)
A498
  GI50: 104 nM (active)
A549
  GI50: 219 nM (active)
ACHN
  GI50: 70.3 nM (active)
BT-549
  GI50: 161 nM (active)
CAKI-1
  GI50: 62.8 nM (active)
CCRF-CEM
  GI50: 15.3 nM (active)
COLO 205
  GI50: 168 nM (active)
DLD-1
  GI50: 53.2 nM (active)
DMS-114
  GI50: 71.8 nM (active)
DMS-273
  GI50: 39.1 nM (active)
DU-145
  GI50: 99.1 nM (active)
EKVX
  GI50: 455 nM (active)
HCC 2998
  GI50: 140 nM (active)
HCT-116
  GI50: 49.3 nM (active)
HCT-15
  GI50: 137 nM
HL-60
  GI50: 18.8 nM (active)
HOP-62
  GI50: 110 nM (active)
HOP-92
  GI50: 130 nM (active)
HT-29
  GI50: 19.2 nM (active)
Hs-578T
  GI50: < 10 nM (active)
IGROV-1
  GI50: 136 nM (active)
K562
  GI50: 12.4 nM (active)
KM-20L2
  GI50: 111 nM (active)
KM12
  GI50: 56.4 nM (active)
LOX IMVI
  GI50: 19.1 nM (active)
LXFL 529
  GI50: 71.3 nM (active)
M14
  GI50: 92.7 nM (active)
M19-MEL
  GI50: 67.6 nM (active)
MDA-MB-231
  GI50: 296 nM (active)
MDA-MB-435
  GI50: 188 nM (active)
MDA-N
  GI50: 76.7 nM (active)
MOLT-4
  GI50: 14 nM (active)
Malme-3M
  GI50: 105 nM (active)
NCI-H226
  GI50: 40.1 nM (active)
NCI-H23
  GI50: 53.6 nM (active)
NCI-H460
  GI50: 23.5 nM (active)
NCI-H522
  GI50: 25.5 nM (active)
OVCAR-3
  GI50: 115 nM (active)
OVCAR-4
  GI50: 82.6 nM (active)
OVCAR-5
  GI50: 220 nM (active)
OVCAR-8
  GI50: < 17.2 nM (active)
PC-3
  GI50: 79.1 nM (active)
RPMI-8226
  GI50: 80 nM (active)
RXF 393
  GI50: 83.4 nM (active)
SF-268
  GI50: 35.1 nM (active)
SF-295
  GI50: 29.6 nM (active)
SF-539
  GI50: 43 nM (active)
SK-MEL-28
  GI50: 93.5 nM (active)
SK-MEL-2
  GI50: 121 nM (active)
SK-MEL-5
  GI50: 72.8 nM (active)
SK-OV-3
  GI50: 254 nM (active)
SN12C
  GI50: 28.5 nM (active)
SNB-19
  GI50: 88.9 nM (active)
SNB-75
  GI50: 34.3 nM (active)
SNB-78
  GI50: 278 nM (active)
SR
  GI50: < 13.8 nM (active)
SW-620
  GI50: 20.9 nM (active)
T47D
  GI50: 106 nM (active)
TK-10
  GI50: 431 nM (active)
U-251
  GI50: 83.6 nM (active)
UACC-257
  GI50: 299 nM (active)
UACC-62
  GI50: 54.5 nM (active)
UO-31
  GI50: 88.3 nM (active)
XF498
  GI50: 57.3 nM (active)
